The source made the active and inactive calls.
Tests used:
[1] = target: NAD-dependent protein deacylase sirtuin-5, mitochondrial (Homo sapiens, UniProt Q9NXA8); test: sirtuin-5 deacylation blockers, concentration series – biochemical, fluorescence imaging, cherry-pick, set 5, dose response (AID 720591);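 note: desuccinylation of succinyl peptide AMC substrate read as fluorescence after trypsin release; potency of inhibitors that lower fluorescence and may act on trypsin instead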
[2] = A549 cell cytotoxicity, dose response, cytotoxicity control, plate reader, cherry-pick, antagonist series (AID 743412); type: functional, cell-based
[3] = toxicity toward HepG2 liver cells – cell-based, plate reader, cherry-pick, antagonist series, cytotoxicity control, dose response (AID 743416); type: functional
[4] = blockade of melanocortin 4 receptor signaling – cell-based, plate reader, cherry pick, counter-screen for LGR2 antagonist project, dose response (AID 743444); type: functional;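 note: transfected HEK 293 cells stimulated with alpha-MSH peptide; potency of inhibitors of the alpha-MSH evoked signal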
[5] = target: COUP transcription factor 2 (Homo sapiens, UniProt P24468); test: Luminescence-based cell-based high throughput dose response assay to identify inhibitors of COUP-TFII (NR2F2).; type: functional;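 note: HEK293 cells transiently cotransfected with COUP-TFII expression vector and reporter; luciferase reporter luminescence driven by COUP-TFII from the pX2-168 reporter plasmid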
Chain of COUP transcription factor 2 (P24468 whole entry): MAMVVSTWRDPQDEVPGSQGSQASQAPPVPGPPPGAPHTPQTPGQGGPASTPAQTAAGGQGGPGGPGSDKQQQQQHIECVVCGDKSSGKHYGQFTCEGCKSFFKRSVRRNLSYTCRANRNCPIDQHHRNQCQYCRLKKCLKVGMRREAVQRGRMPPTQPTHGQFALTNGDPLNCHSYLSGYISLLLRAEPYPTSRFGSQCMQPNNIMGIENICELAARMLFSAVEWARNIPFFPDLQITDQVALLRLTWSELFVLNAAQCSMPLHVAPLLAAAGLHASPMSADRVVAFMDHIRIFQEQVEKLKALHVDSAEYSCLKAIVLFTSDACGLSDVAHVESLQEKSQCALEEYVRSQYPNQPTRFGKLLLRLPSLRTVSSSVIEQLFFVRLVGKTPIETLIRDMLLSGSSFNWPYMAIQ

[6] = viability loss in HEK293 cells – cell-based, plate reader, cherry-picked samples, cytotoxicity control, dose response (AID 743446); type: functional
[7] = blockers of bursicon-stimulated LGR2 cAMP reporter – cell-based, HEK293, CRE-luciferase reporter, cherry pick, set 2, dose response (AID 743343); type: functional;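 note: transfected cells were stimulated with diluted bursicon conditioned medium after compound addition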
[8] = target: T1, Histone-lysine N-methyltransferase NSD2 (Homo sapiens, UniProt O96028); type: biochemical
T1 sequence (O96028 whole entry): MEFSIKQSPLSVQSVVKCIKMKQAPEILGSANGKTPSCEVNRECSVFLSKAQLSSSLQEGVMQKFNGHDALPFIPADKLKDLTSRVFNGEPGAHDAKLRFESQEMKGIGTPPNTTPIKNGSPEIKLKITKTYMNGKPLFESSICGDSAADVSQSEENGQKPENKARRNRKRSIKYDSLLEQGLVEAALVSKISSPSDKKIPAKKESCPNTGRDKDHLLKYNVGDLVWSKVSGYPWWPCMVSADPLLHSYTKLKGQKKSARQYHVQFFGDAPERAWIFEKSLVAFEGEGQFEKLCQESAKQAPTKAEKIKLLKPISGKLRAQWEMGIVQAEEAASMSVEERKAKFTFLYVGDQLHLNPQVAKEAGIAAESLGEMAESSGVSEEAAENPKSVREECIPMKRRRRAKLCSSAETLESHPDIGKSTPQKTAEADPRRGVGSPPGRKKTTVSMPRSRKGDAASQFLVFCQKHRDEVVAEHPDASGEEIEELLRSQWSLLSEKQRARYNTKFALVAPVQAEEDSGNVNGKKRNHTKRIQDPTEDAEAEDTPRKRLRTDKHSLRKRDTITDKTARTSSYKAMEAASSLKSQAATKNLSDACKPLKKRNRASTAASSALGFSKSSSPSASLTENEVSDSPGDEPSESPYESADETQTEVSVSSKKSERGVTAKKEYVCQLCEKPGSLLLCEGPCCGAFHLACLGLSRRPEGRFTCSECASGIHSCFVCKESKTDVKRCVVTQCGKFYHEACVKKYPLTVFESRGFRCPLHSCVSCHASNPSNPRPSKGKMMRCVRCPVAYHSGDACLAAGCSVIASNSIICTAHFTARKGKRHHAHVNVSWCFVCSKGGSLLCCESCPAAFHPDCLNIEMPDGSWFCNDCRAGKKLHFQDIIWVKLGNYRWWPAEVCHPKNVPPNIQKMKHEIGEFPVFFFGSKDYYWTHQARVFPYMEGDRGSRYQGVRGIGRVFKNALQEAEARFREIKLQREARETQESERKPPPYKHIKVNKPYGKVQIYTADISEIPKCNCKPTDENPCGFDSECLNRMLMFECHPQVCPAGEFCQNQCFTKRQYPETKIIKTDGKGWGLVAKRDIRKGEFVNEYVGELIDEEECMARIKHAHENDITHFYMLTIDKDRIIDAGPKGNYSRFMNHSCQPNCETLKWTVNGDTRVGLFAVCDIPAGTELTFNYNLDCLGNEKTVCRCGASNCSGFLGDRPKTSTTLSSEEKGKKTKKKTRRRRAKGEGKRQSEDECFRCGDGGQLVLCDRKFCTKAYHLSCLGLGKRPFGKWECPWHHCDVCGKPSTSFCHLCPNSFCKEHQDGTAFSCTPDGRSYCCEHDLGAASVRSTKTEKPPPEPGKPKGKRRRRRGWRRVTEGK

[9] = target: T2, Caspase-3 (Homo sapiens, UniProt P42574); test: human caspase-3 protease activity blockade – biochemical, fluorescence, cherry-picked samples, selectivity assay for caspase-6 allosteric inhibitor project, dose response (AID 743291)
T2 sequence (P42574 whole entry): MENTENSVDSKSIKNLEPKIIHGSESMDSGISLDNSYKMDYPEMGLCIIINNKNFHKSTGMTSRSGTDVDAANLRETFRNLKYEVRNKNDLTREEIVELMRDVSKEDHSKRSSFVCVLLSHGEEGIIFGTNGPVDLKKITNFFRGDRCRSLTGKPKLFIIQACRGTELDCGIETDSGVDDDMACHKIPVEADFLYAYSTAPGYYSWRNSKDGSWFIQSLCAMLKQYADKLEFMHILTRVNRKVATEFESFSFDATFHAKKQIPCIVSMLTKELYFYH

[10] = target: Caspase-7 (Homo sapiens, UniProt P55210); test: caspase-7 enzyme inhibition, selectivity check – biochemical, DEVD-R110 fluorescence, cherry-pick, selectivity assay for caspase-6 inhibitor project, dose response (AID 743295); type: functional
Chain of Caspase-7 (P55210 24-198 limits assumed): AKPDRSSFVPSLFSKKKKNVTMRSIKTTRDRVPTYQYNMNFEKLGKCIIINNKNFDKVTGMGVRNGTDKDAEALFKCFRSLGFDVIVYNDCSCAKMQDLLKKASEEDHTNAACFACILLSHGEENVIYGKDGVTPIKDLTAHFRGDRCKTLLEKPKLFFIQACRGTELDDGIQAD
Chain of Caspase-7 (P55210 207-303 limits assumed): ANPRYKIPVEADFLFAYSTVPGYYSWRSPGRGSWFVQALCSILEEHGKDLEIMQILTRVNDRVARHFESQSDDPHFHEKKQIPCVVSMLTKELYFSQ

[11] = target: T3, Caspase-6 (Homo sapiens, UniProt P55212); test: inhibition of CASP6 peptide cleavage – biochemical, VEID-R110 fluorescence, cherry-pick, dose response (AID 720632)
T3 sequence (P55212 whole entry): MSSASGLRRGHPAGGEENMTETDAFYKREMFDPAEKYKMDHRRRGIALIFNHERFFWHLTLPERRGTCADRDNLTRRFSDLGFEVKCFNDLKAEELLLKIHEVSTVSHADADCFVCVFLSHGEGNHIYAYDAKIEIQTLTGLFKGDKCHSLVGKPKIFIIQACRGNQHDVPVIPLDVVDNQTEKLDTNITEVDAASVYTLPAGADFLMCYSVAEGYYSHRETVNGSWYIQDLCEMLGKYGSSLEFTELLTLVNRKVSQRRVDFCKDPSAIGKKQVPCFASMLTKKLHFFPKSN

[12] = target: Caspase-8 (Homo sapiens, UniProt Q14790); test: inhibitors of purified CASP8 protease – biochemical, Z-IETD-R110 fluorescence, cherry-picked samples, selectivity assay for caspase-6 inhibitor project, dose response (AID 743294)
Chain of Caspase-8 (Q14790 217-374 limits assumed): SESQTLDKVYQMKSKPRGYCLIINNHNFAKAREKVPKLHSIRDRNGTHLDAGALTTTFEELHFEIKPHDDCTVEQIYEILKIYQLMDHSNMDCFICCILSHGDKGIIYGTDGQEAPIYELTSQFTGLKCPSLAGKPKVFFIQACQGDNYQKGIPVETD
Chain of Caspase-8 (Q14790 385-479 limits assumed): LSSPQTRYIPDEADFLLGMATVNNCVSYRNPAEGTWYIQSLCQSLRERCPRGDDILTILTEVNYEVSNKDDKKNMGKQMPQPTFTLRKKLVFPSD

[13] = target: T4, Sentrin-specific protease 8 (Homo sapiens, UniProt Q96LD8); type: functional
T4 sequence (Q96LD8 whole entry): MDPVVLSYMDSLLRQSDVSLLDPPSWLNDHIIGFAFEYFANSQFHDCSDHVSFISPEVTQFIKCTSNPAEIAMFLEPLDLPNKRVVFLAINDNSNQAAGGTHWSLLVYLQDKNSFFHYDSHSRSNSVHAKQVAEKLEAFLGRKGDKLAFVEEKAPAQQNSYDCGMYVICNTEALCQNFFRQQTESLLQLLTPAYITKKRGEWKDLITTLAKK

[14] = target: T4, Sentrin-specific protease 8; type: functional; remark: listed apart in the source
[15] = target: T5, Caspase-9 (Homo sapiens, UniProt P55211); test: inhibitors of purified CASP9 protease – biochemical, fluorescence, plate reader, cherry-picked samples, selectivity assay for caspase-6 inhibitor project, dose response (AID 743293)
T5 sequence (P55211 whole entry): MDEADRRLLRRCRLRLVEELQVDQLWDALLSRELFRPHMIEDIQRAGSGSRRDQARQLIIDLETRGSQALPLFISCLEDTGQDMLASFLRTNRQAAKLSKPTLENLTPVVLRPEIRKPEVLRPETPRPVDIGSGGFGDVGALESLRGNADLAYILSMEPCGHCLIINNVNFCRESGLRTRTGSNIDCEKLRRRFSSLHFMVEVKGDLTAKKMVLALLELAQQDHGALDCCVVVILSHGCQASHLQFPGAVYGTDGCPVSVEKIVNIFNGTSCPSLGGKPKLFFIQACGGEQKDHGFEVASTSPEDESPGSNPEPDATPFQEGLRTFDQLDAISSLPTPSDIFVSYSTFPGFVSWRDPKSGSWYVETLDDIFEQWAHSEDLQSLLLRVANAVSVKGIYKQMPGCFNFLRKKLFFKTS

[16] = reduced cellular PGC1a acetyl-lysine signal – cell-based, cherry-picked samples, dose response (AID 720514); type: functional;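 note: potency may reflect raised or lowered acetylation signal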
[17] = Fluorescence-based cell-based high throughput dose response assay for inhibitors of the interaction of nucleotide-binding oligomerization domain containing 2 (NOD2) and the receptor-interacting serine-threonine kinase 2 (RIPK2).; type: functional; conditions: Homo sapiens
[18] = target: T6, Microphthalmia-associated transcription factor (Homo sapiens, UniProt O75030); test: reducers of TRPM1 reporter luminescence, concentration series – cell-based, SK-MEL-5, cherry-picked, set 3, MITF inhibitor project, dose response (AID 493073); type: functional;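 note: SK-MEL-5 melanoma cells with luciferase driven by the MITF target TRPM1 promoter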
T6 sequence (O75030 whole entry): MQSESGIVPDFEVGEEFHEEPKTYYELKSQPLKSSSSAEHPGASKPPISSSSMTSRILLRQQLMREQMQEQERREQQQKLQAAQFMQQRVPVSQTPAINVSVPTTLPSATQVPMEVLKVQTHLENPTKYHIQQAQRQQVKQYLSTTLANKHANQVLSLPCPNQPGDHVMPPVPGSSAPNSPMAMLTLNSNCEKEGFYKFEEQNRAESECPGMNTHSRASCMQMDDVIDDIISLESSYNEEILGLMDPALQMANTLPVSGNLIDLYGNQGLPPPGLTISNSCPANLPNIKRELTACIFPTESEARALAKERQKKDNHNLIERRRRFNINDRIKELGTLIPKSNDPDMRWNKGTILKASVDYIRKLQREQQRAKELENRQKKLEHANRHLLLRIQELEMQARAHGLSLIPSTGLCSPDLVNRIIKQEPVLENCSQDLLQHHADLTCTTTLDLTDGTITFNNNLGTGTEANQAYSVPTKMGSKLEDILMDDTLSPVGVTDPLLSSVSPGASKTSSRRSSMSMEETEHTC

[19] = target: Paired box protein Pax-8 (Homo sapiens, UniProt Q06710); test: PAX8 transcriptional activity inhibition in RMG-I – RMG-I cells, luciferase, cherry-pick, dose response (AID 687027); type: functional, cell-based;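 note: luciferase reporter driven by Pax8 target thyroperoxidase promoter measured by SteadyGlo luminescence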
Chain of Paired box protein Pax-8 (Q06710 whole entry): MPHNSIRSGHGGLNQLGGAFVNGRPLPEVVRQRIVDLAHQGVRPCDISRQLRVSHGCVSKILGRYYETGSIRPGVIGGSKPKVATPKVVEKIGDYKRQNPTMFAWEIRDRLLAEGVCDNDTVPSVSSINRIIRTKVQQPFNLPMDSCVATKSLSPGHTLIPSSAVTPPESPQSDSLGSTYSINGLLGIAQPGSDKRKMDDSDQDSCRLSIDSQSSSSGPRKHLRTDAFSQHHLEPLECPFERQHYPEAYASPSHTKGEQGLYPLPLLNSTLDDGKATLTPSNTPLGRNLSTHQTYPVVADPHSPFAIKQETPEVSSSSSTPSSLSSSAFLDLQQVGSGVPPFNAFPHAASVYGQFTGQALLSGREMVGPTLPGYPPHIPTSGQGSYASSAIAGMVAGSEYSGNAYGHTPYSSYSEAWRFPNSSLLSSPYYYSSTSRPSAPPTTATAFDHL

Chain of NAD-dependent protein deacylase sirtuin-5, mitochondrial (Q9NXA8 whole entry): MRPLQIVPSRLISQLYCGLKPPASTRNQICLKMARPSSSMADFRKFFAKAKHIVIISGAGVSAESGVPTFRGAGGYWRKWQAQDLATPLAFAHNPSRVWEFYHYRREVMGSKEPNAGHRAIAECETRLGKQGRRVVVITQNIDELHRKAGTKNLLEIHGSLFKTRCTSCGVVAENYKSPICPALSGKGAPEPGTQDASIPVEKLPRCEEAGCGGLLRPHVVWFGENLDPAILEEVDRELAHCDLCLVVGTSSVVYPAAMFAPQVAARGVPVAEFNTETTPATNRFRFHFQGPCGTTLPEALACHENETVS

COc1cc(Nc2ncc3c(n2)CCN(C(=O)Nc2ccc(C(C)C)cc2)C3)cc(OC)c1OC
active: AC50 [1] 17 µM

COc1ccc(-n2nnnc2C(c2cc3ccccc3o2)N2CCC(n3c(O)nc4ccccc43)CC2)cc1 (centres undefined)
active: AC50 [2] 38.9 µM | AC50 [3] 4.45 µM | AC50 [4] 14.3 µM | IC50 [5] 6.4 µM | AC50 [6] 8.29 µM | AC50 [7] 13.7 µM

COc1cc(N(C(C)=O)c2ccc(O)c(C(=O)O)c2)c2ncccc2c1
active: AC50 [8] 6.27 µM | AC50 [9] 13.8 µM | AC50 [10] 20.1 µM | AC50 [11] 3.48 µM | AC50 [12] 49.5 µM | IC50 [13] 9.87 µM | IC50 [14] 7.7 µM | AC50 [15] 45.4 µM

Cc1ccc(NC(=O)Cn2ncc(Cl)c(Cl)c2=O)cc1S(=O)(=O)N1CCCCC1
active: AC50 [16] 7.27 µM | IC50 [17] 2.88 µM | AC50 [18] 13.7 µM | AC50 [19] 4.58 µM

From ChEMBL document CHEMBL1201862, “PubChem BioAssay data set” (2004)
